We go through one compound from patent publication US20210009542A1 (Calico Life Sciences LLC, priority 2018, published 2021).

Like-named read-outs stand apart in the source and are kept apart here.

In test [1] the test system is B16F10 mouse melanoma cells. In words: B16F10 IFNγ-induced cellular growth inhibition assay. The class given is cell-based. The note with it: Mus musculus, B16-F10, 33 μM compound. The gist of the method:
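B16F10 cells (500/well, DMEM + 10% FBS) dosed in triplicate at 100 μM to 0.001 μM (0.1% DMSO) with or without 0.5 ng/mL final mouse IFNγ. Confluence imaged every 6 h for 5 days; % growth inhibition calculated versus DMSO/with-IFNγ control once DMSO/no-IFNγ wells exceeded 95% confluence.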

For test [2], the target named is T1, His tagged PTPN2 (TC45) protein (Homo sapiens, UniProt P17706).
T1 construct: made in house
T1 sequence (P17706 with tags, fused parts or gaps isoform P17706-2): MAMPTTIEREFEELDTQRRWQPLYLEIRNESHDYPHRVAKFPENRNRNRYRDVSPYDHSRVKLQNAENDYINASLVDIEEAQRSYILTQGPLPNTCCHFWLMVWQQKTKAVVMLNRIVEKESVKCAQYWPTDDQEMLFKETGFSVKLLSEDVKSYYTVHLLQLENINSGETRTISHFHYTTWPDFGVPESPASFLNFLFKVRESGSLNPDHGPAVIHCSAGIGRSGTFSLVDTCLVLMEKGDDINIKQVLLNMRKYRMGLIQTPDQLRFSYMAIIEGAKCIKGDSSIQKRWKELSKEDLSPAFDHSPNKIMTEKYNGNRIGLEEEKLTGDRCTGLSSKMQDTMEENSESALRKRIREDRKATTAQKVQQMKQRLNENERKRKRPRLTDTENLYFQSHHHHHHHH
As to the kind of experiment: Mobility shift assay (MSA) for potency of PTPN2 inhibitors. The note with it: read-out: PTPN2 MSA IC50. The class given is biochemical. The gist of the method:
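His-tagged PTPN2 TC45 (0.5 nM) was preincubated with compound (12-point, 1:3) for 10 min at room temperature in 50 mM HEPES pH 7.5, 1 mM EGTA, 10 mM EDTA, 0.01% Tween 20, 2 mM DTT. OG488-labelled phospho-insulin-receptor peptide ([…]) was then added for 10 min. After quenching, dephosphorylation was measured by microfluidic mobility shift and IC50 derived from % inhibition.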

For test [3], the system named is Pan T cells isolated from C57BL6 splenocytes. In words: T cell activation assay (flow cytometry, CD25/CD69 on CD8 T cells). As to conditions: for % CD25 within CD8+ / % CD69 within CD8+ / CD25 MFI / CD69 MFI: 30 μM compound, 2 days. The test is classed as cell-based, mouse. As for the experimental part: (§1) Pan T cells were isolated from C57BL6 splenocytes using a MACS Pan T cell isolation kit II (Miltenyi Biotec, Auburn, Calif.) according to the manufacturer's instructions. Isolated T cells (200,000 cells/well in a 96 well flat-bottom plate) were cultured in RPMI 1640 supplemented with 10% FBS, […] 2-mercatoethanol, 100 U/mL penicillin, and 100 μg/mL streptomycin, and incubated with the indicated concentration of compound or DMSO in duplicates. After 1 hour, mouse T cell activator CD3/CD28 Dynabeads (ThermoFisher Scientific, Waltham, Mass.) were added at a 1:5 beads to cells ratio to stimulate the T cells for 2 or 3 days as outlined below. T cells with or without compound were incubated in the absence of T cell activator beads (media only) as control.
After 2 days of stimulation, activation status of T cells was assessed by flow cytometry. T cells were first subjected to Zombie Violet™ Fixable Viability dye (BioLegend, San Diego, Calif.) for dead cell exclusion, washed and then stained with BUV805 labeled anti-CD8, APC-R700 labeled anti-CD25 (both from BD Biosciences, San Jose, Calif.) and PE labeled anti-CD69 (BioLegend, San Diego, Calif.) antibodies. After staining, cells were fixed with 2% paraformaldehyde and acquired on a BD LSRFortessa™ X-20 flow cytometer (BD Biosciences, San Jose, Calif.) using BD FACSDiva™ software. Data was analyzed using FlowJo V10 (Flow Jo LLC, Ashland, Oreg.). Dead cells were excluded and frequencies of activated CD8 T cells was reported as the frequency of CD25+ or CD69+ cells within the CD8+ population. The expression level of CD25 and CD69 indicates the activation status of cells on a per cell basis and was evaluated by the mean fluorescence intensities (MFI) of CD25 and CD69.

Test [4] has the same test system. In words: T cell function assay (IFNγ and TNFα in supernatants, MSD V-plex). The class given is cell-based, mouse. The note with it: 30 μM compound, 3 days, supernatant. The protocol:
as §1
After 3 days of stimulation, supernatants were collected and IFNγ and TNFα in supernatants were assessed using an MSD V-plex assay (Meso Scale Discovery, Rockville, Md.).

Where [5] appears, read: anti-CD3/anti-CD28 Dynabeads (1:5 beads:cells).

By IC50 is commonly meant the concentration that gives 50% inhibition. Consider `O=C1CN(c2c(O)cc3ccc(OC(F)F)cc3c2F)S(=O)(=O)N1` [Compound 260, 5-[7-(difluoromethoxy)-1-fluoro-3-hydroxynaphthalen-2-yl]-1λ^6,2,5-thiadiazolidine-1,1,3-trione], for which, in test [1] (+0.5 ng/mL IFNγ, relative to DMSO control, read-out: % B16F10 growth inhibition (+0.5 ng/mL IFNγ) @ 33 μM), the inhibition at 33 µM lay within 25 to 59%. Besides, the inhibition at 33 µM in test [1] (no IFNγ, read-out: % B16F10 growth inhibition (no IFNγ) @ 33 μM) was less than 25%. Moreover, the IC50 in test [2] was in the range of 1 to 10 nM. For the same compound, in test [3] (setting [5]), the “% CD25 within CD8+” value is reported as 39.60%, the “% CD69 within CD8+” value worked out at 61.65%, the “CD25 MFI” value is 1085 and the “CD69 MFI” value was 464.5. Besides, in test [3] (no TCR stimulation), the “% CD25 within CD8+” value was 0.29%, the “% CD69 within CD8+” value is recorded as 0.17%, the “CD25 MFI” value was determined as 28.3 and the “CD69 MFI” value worked out at 10.2. For the same compound, the “T cell activation and T cell function” value in test [3] (with TCR stimulation) was “increased both T cell activation and T cell function”. For the same compound, in test [4] (setting [5]), the “IFNγ” value came out at 752 ng/mL and the “TNFα” value was found to be 207 ng/mL. For the same compound, in test [4] (no TCR stimulation), the “IFNγ” value is 3.8 ng/mL and the “TNFα” value is reported as 2.1 ng/mL.
